Assay results from ChEMBL document CHEMBL3774388, “Synthesis and anti-cancer activity evaluation of 5-(2-carboxyethenyl)-isatin derivatives” (Eur J Med Chem, 2016).
Calls of active or inactive are those of the source. The rule behind the calls is not given here.

Tests used:
[1] = system: Jurkat; assay: Anticancer activity against human Jurkat cells after 48 hrs by MTT assay; type: functional, cell-based
[2] = system: Jurkat; assay: Induction of apoptosis in human Jurkat cells assessed as viable cells at 30 nM after 12 hrs by Annexin-V-FITC/PI-staining based flow cytometric analysis (reference value: 99.1%); type: functional; settings: read-out: Activity
[3] = Anticancer activity against human BT549 cells after 48 hrs by MTT assay; type: functional, cell-based; settings: BT-549, 48 h
[4] = system: Jurkat; assay: Induction of apoptosis in human Jurkat cells assessed as early apoptotic cells at 30 nM after 12 hrs by Annexin-V-FITC/PI-staining based flow cytometric analysis relative to control; type: functional
[5] = system: MCF7; assay: Anticancer activity against human MCF7 cells after 48 hrs by MTT assay; type: functional, cell-based; settings: MCF7, 48 h
[6] = system: Jurkat; assay: Induction of apoptosis in human Jurkat cells assessed as increase in cells with reduction in mitochondrial membrane potential at 30 nM after 24 hrs by TMRM-staining based flow cytometric analysis ( Rvb = 7.8%); type: functional; parameters: scale not given: the % may be the effect or the level left
[7] = system: Jurkat; assay: Induction of apoptosis in human Jurkat cells assessed as increase in cells with reduction in mitochondrial membrane potential at 30 nM after 48 hrs by TMRM-staining based flow cytometric analysis ( Rvb = 7.8%); type: functional; parameters: scale not given: the % may be the effect or the level left
[8] = Anticancer activity against human HCT116 cells after 48 hrs by MTT assay; type: functional, cell-based; settings: HCT-116, 48 h
[9] = Anticancer activity against human BT474 cells after 48 hrs by MTT assay; type: functional, cell-based; settings: BT-474, 48 h
[10] = system: HUVEC; assay: Cytotoxicity against HUVEC cells after 48 hrs by MTT assay; type: cell-based; settings: Homo sapiens
[11] = system: Jurkat; assay: Induction of apoptosis in human Jurkat cells at 10 to 30 nM by Annexin-V-FITC/PI-staining based flow cytometric analysis; type: functional, cell-based; settings: TDE = time-dependent effect
[12] = system: Jurkat; assay: Induction of apoptosis in human Jurkat cells assessed as early apoptotic cells at 10 nM after 12 hrs by Annexin-V-FITC/PI-staining based flow cytometric analysis relative to control; type: functional
[13] = Anticancer activity against human DU145 cells after 48 hrs by MTT assay; type: functional, cell-based; settings: DU-145, 48 h
[14] = system: Jurkat; assay: Induction of apoptosis in human Jurkat cells using Z-DEVD-R110 as substrate assessed as caspase3 activation at 30 nM incubated for 18 hrs measured at 48 hrs by fluorescence analysis; type: functional, cell-based
[15] = system: Jurkat; assay: Induction of apoptosis in human Jurkat cells assessed as viable cells at 10 nM after 12 hrs by Annexin-V-FITC/PI-staining based flow cytometric analysis (reference value: 99.1%); type: functional; settings: read-out: Activity
[16] = Anticancer activity against human SKOV3 cells after 48 hrs by MTT assay; type: functional, cell-based; settings: SK-OV-3, 48 h
[17] = system: A549; assay: Anticancer activity against human A549 cells after 48 hrs by MTT assay; type: functional, cell-based; settings: A549, 48 h
[18] = system: Jurkat; assay: Induction of apoptosis in human Jurkat cells assessed as late apoptotic cells at 30 nM after 12 hrs by Annexin-V-FITC/PI-staining based flow cytometric analysis relative to control; type: functional
[19] = system: Jurkat; assay: Induction of apoptosis in human Jurkat cells assessed as necrotic cells at 10 nM after 12 hrs by Annexin-V-FITC/PI-staining based flow cytometric analysis (reference value: 0.8%); type: functional
[20] = system: HEK293; assay: Cytotoxicity against HEK293 cells after 48 hrs by MTT assay; type: cell-based; settings: Homo sapiens, HEK293, 48 h
[21] = system: HeLa; assay: Anticancer activity against human HeLa cells after 48 hrs by MTT assay; type: functional, cell-based
[22] = system: NCI-H1299; assay: Anticancer activity against human NCI-H1299 cells after 48 hrs by MTT assay; type: functional, cell-based; settings: NCI-H1299, 48 h
[23] = system: A498; assay: Anticancer activity against human A498 cells after 48 hrs by MTT assay; type: functional, cell-based; settings: A498, 48 h
[24] = system: Jurkat; assay: Induction of apoptosis in human Jurkat cells assessed as late apoptotic cells at 10 nM after 12 hrs by Annexin-V-FITC/PI-staining based flow cytometric analysis relative to control; type: functional
[25] = system: Jurkat; assay: Induction of apoptosis in human Jurkat cells assessed as necrotic cells at 30 nM after 12 hrs by Annexin-V-FITC/PI-staining based flow cytometric analysis (reference value: 0.8%); type: functional
[26] = system: Jurkat; assay: Induction of apoptosis in human Jurkat cells assessed as induction of cell shrinkage and blebbing at 10 and 30 nM incubated for 12 hrs by phase contrast microscopy; type: functional, cell-based

COC(=O)/C=C/c1ccc2c(c1)C(=O)C(=O)N2CCOc1ccccc1
IC50 [1]: 200 nM

O=C1Nc2ccccc2C1=O [ISATIN]
IC50 [1]: > 10000 nM

COC(=O)/C=C/c1ccc2c(c1)C1(OCCO1)C(=O)N2Cc1ccc(Br)cc1
IC50 [1]: > 10000 nM

COC(=O)/C=C/c1ccc2c(c1)C(=O)C(=O)N2Cc1ccc(Cl)c(Cl)c1
IC50 [1]: 850 nM

CCN1C(=O)C(=O)c2cc(/C=C/C(=O)OC)ccc21
IC50 [1]: 200 nM

COC(=O)/C=C/c1ccc2c(c1)C(O)C(=O)N2Cc1ccc(OC)cc1 (stereo unspecified)
IC50 [1]: 30 nM

O=C1C(=O)N(Cc2ccc(Br)cc2)c2ccc(/C=C/C(=O)N3CCCC3)cc21
IC50 [1]: 3190 nM

COC(=O)/C=C/c1ccc2c(c1)C(O)C(=O)N2Cc1ccc(Br)cc1 (stereo unspecified)
IC50 [1]: 1230 nM

COc1ccc(CN2C(=O)C(=O)c3cc(/C=C/C(=O)OCCO)ccc32)cc1
IC50 [1]: 500 nM

COC(=O)/C=C/c1ccc2c(c1)C(=O)C(=O)N2Cc1ccc(OC)cc1
viability at 0.03 µM [2]: 56.1%
IC50 [3]: 70 nM
Activity [4]: 35.5%
IC50 [5]: 80 nM
Activity [6]: 32%
Activity [7]: 81.9%
IC50 [8]: 40 nM
IC50 [9]: 5940 nM
IC50 [10]: > 10000 nM
Activity [11]: tde
Activity [12]: 28.5%
IC50 [13]: > 10000 nM
Activity [14]: Active
viability at 0.01 µM [15]: 62.5%
IC50 [16]: > 10000 nM
IC50 [17]: > 10000 nM
Activity [18]: 6.5%
Activity [19]: 1.8%
IC50 [20]: > 10000 nM
IC50 [21]: 9120 nM
IC50 [22]: 30 nM
IC50 [23]: 5300 nM
Activity [24]: 7.2%
Activity [25]: 1.9%
IC50 [1]: 30 nM
Activity [26]: Active

CCOC(=O)/C=C/c1ccc2c(c1)C(=O)C(=O)N2Cc1ccc(OC)cc1
IC50 [1]: 30 nM

COC(=O)/C=C/c1cccc2c1C(=O)C(=O)N2Cc1ccc(OC)cc1
IC50 [1]: 790 nM

COc1ccc(CN2C(=O)C(=O)c3cc(/C=C/C(=O)N4CCCC4)ccc32)cc1
IC50 [1]: 2240 nM

COc1ccc(CN2C(=O)C(=O)c3cc(/C=C/C(=O)O)ccc32)cc1
IC50 [1]: > 10000 nM

CCOC(=O)/C=C/c1ccc2c(c1)C(=O)C(=O)N2Cc1ccc(Br)cc1
IC50 [1]: 70 nM

O=C(/C=C/c1ccc2c(c1)C(=O)C(=O)N2Cc1ccc(Br)cc1)OCCO
IC50 [1]: 400 nM

COC(=O)/C=C/c1ccc2c(c1)/C(=N/O)C(=O)N2Cc1ccc(Br)cc1
IC50 [1]: 5860 nM

COC(=O)/C=C/c1ccc2c(c1)C(=O)C(=O)N2Cc1ccccc1
IC50 [1]: 70 nM

CCCCc1ccc2c(c1)C(=O)C(=O)N2
IC50 [1]: > 10000 nM

O=C1Nc2ccc(Br)cc2C1=O
IC50 [1]: > 10000 nM

NC(=O)/C=C/c1ccc2c(c1)C(=O)C(=O)N2Cc1ccc(Br)cc1
IC50 [1]: 2340 nM

COC(=O)/C=C/c1ccc2c(c1)C(=O)C(=O)N2C
IC50 [1]: 250 nM

COC(=O)/C=C/c1ccc2c(c1)C(=O)C(=O)N2Cc1ccc(C#N)cc1
IC50 [1]: 80 nM

COC(=O)/C=C/c1ccc2c(c1)C(=O)C(=O)N2Cc1ccc(C)cc1
IC50 [1]: 50 nM

O=C1Nc2ccc(F)cc2C1=O [5-FLUOROISATIN]
IC50 [1]: > 10000 nM

COC(=O)/C=C/c1ccc2c(c1)C(=O)C(=O)N2Cc1cccc(Br)c1
IC50 [1]: 120 nM

COC(=O)/C=C/c1ccc2c(c1)C(=O)C(=O)N2Cc1ccccc1Br
IC50 [1]: 800 nM

COc1ccc2c(c1)C(=O)C(=O)N2 [5-METHOXYISATIN]
IC50 [1]: > 10000 nM

COC(=O)/C=C/c1ccc2c(c1)CC(=O)N2Cc1ccc(OC)cc1
IC50 [1]: > 10000 nM

CCCCOC(=O)/C=C/c1ccc2c(c1)C(=O)C(=O)N2Cc1ccc(OC)cc1
IC50 [1]: 220 nM

COC(=O)/C=C/c1ccc2c(c1)CC(=O)N2Cc1ccc(Br)cc1
IC50 [1]: > 10000 nM

CCCCOC(=O)/C=C/c1ccc2c(c1)C(=O)C(=O)N2Cc1ccc(Br)cc1
IC50 [1]: 700 nM

COc1ccc(CN2C(=O)C(=O)c3cc(/C=C/C(N)=O)ccc32)cc1
IC50 [1]: 1610 nM

Cc1ccc2c(c1)C(=O)C(=O)N2
IC50 [1]: > 10000 nM

O=C1C(=O)N(Cc2ccc(Br)cc2)c2ccc(/C=C/C(=O)N3CCOCC3)cc21
IC50 [1]: 1430 nM

COC(=O)/C=C/c1ccc2c(c1)C(=O)C(=O)N2
IC50 [1]: 200 nM

COC(=O)/C=C/c1ccc2c(c1)C(=O)C(=O)N2Cc1ccc(F)cc1
IC50 [1]: 380 nM

O=C1Nc2ccc(Cl)cc2C1=O
IC50 [1]: > 10000 nM

COC(=O)/C=C/c1ccc2c(c1)C1(OCCO1)C(=O)N2Cc1ccc(OC)cc1
IC50 [1]: > 10000 nM

COc1ccc(CN2C(=O)C(=O)c3cc(/C=C/C(=O)OC(C)(C)C)ccc32)cc1
IC50 [1]: 310 nM

COC(=O)/C=C/c1cccc2c1N(Cc1ccc(OC)cc1)C(=O)C2=O
IC50 [1]: > 10000 nM

COC(=O)/C=C/c1ccc2c(c1)C(=O)C(=O)N2Cc1ccc2ccccc2c1
IC50 [1]: 640 nM

CC(C)(C)OC(=O)/C=C/c1ccc2c(c1)C(=O)C(=O)N2Cc1ccc(Br)cc1
IC50 [1]: 1040 nM

COC(=O)/C=C/c1ccc2c(c1)N(Cc1ccc(OC)cc1)C(=O)C2=O
IC50 [1]: 3110 nM

COC(=O)/C=C/c1ccc2c(c1)C(=O)C(=O)N2Cc1ccc(Br)cc1
IC50 [1]: 60 nM

COC(=O)/C=C/c1ccc2c(c1)C(=O)C(=O)N2Cc1ccc(Cl)cc1
IC50 [1]: 260 nM

COc1ccc(CN2C(=O)C(=O)c3cc(/C=C/C(=O)N4CCOCC4)ccc32)cc1
IC50 [1]: 4550 nM

COC(=O)/C=C/c1ccc2c(c1)C(=O)C(=O)N2Cc1ccc(C(F)(F)F)cc1
IC50 [1]: 360 nM

COC(=O)/C=C/c1ccc2c(c1)/C(=N/O)C(=O)N2Cc1ccc(OC)cc1
IC50 [1]: 9110 nM

COC(=O)/C=C/c1ccc2c(c1)C(=O)C(=O)N2Cc1cc(C)cc(C)c1
IC50 [1]: 620 nM

CC[C@@]1(O)C(=O)OCc2c1cc1n(c2=O)Cc2cc3ccccc3nc2-1 [CAMPTOTHECIN]
IC50 [1]: 85 nM
